Reference: ChEMBL document CHEMBL1145660, “Antimicrobial Neolignans of Sassafras randaiense Roots” (1983)
Converted amounts (≈) assume the structure as drawn.

Assays:
Assay type in all cases: functional
[1] = test system: Staphylococcus aureus; experiment: Antimicrobial activity against Staphylococcus aureus ATCC 6538
[2] = test system: Mycolicibacterium smegmatis; experiment: Antimicrobial activity against Mycobacterium smegmatis ATCC 607
[3] = test system: Trichophyton mentagrophytes; experiment: Antimicrobial activity against Trichophyton mentagrophytes ATCC 9972
[4] = test system: Saccharomyces cerevisiae; experiment: Antimicrobial activity against Saccharomyces cerevisiae ATCC 9763

- MIC [1]: 3.12 µg/mL (≈ 11.7 µM)
- MIC [2]: 1.56 µg/mL (≈ 5.86 µM)
- MIC [3]: 1.56 µg/mL (≈ 5.86 µM)
- MIC [4]: 25 µg/mL (≈ 93.9 µM)
SMILES: C=CCc1ccc(Oc2cc(CC=C)ccc2O)cc1 [ISOMAGNOLOL]
